Source: patent US20030180345A1, “Compositions and methods for inhibiting islet dysfunction and autoimmune disorders” (priority 2000, published 2003)

Legend:
fetal islets = test: Interaction of dietary and in vitro taurine on SNP- or IL1β-induced apoptosis of fetal islets; assay type: cell-based, Wistar rats
Method: Animals and diets were prepared as described in Example 7. Pancreases were removed and islets were isolated from late gestation fetuses at day 21.5. Neoformed fetal islets obtained after five days of culture from the four diet groups (C, C+Taurine, LP, and LP+Taurine) were compared for their susceptibility to apoptosis following exposure to SNP (100 μmol/l), or IL1β (50 U/ml), with or without in vitro taurine at either physiological (0.3 mmol/l) or supraphysiological (3.0 mmol/l) levels.

NOD mice = test: Insulitis in NOD mice at 12 weeks after taurine in maternal drinking water (pregnancy and lactation); assay type: in vivo; settings: for reduction of incidence of insulitis: 12 weeks of age, vs control animals
From the text: Pregnant NOD mice were maintained on a control diet either with or without taurine supplementation in the drinking water throughout pregnancy and lactation. Supplementation of taurine was stopped after weaning. At 12 weeks of age the animals were killed and examined for histological evidence of insulitis within the pancreatic islets. Mice which were examined and found to have evidence of insulitis, were then further scored as peri-islet (slight), less than 50% area of islet (medium) or more than 50% islet area (heavy), as indicative of the stage and/or severity of insulitis.

fetal islet cells [1] = test: IL1β-induced apoptosis in cultured fetal islets (TUNEL); assay type: cell-based, Wistar rats; settings: IL1β 50 U/ml
Method: The effect of in vitro taurine on the effect of IL1β-induced apoptosis was assessed. Fetal islets were isolated as described above in Example 1. On the 5th day of culture, islets were rinsed twice with serum free DME/F12 medium (1:1, v/v, Gibco, Paisley, Scotland) and were incubated in this medium supplemented with taurine at 0.3 or 3 mmol/l for 48 hours. For the final 24 hours of this incubation, IL1β (Endogen, Woburn, Mass.) was added to the incubation medium at a level of 50 U/ml. Apoptosis was quantified by confocal microscopy using TUNEL method, as outlined in Example 1.

[2] = taurine 0.3 mmol/l or 3 mmol/l; acellular
Method: (§1) Nitric oxide is a reactive free radical which leads to peroxynitrite formation, another reactive free radical, by interaction with superoxide (NO+OO^−→ONOO^−). […] Luminol-derived chemiluminescence induced by peroxynitrite produced by the decomposition of sydnonimine (SIN-1) was evaluated to investigate the possibility that taurine quenched the peroxynitrite formed from NO.

fetal islet cells [3] = test: In vitro fetal islet cell proliferation (BrdU incorporation); assay type: cell-based, Wistar rats; settings: LP islets; taurine 1.25 or 2.5 mmol/l in culture media
Method: Animals and diets were as described in Example 1. Fetuses were removed at fetal day 21.5, and fetal islet cells were isolated and treated as described in Example 1. Taurine was added to incubation medium at levels of either 0 mmol/l, 1.25 mmol/l or 2.5 mmol/l. Proliferation was evaluated using bromodeoxyuridine (BrdU) incorporation into DNA.

fetal islet β cells = test: Global cell death / mortality of cultured fetal islets (ethidium bromide permeability); assay type: cell-based; settings: SNP (100 μmol/l); pre-treated with taurine 0.3 or 3 mmol/l; both diet groups; dose dependent
Method: Global cell death. Global cell death was analysed using a non-specific staining permeant probe. For this purpose, the culture medium was removed and the dishes were incubated in the dark with 1 ml of 20 μg/ml ethidium bromide for 20 min to stain permeabilized dead cells. The cultures were then fixed with 4% paraformaldehyde in PBS for 10 min, treated with 30% methanol for permeabilization of the remaining of the cells and then mounted in mowiol containing 20 μg/ml of Hoechst 33342, to stain the nuclei.
Physiological and supraphysiological levels of each amino acid were tested. Taurine, if present was either 0.3 mmol/l (physiological) or 3 mmol/l (supraphysiological); methionine, if present was either 0.1 mmol/l (physiological) or 1 mmol/l (supraphysiological); and β-alanine, if present was either 0.3 mmol/l (physiological) or 3 mmol/l (supraphysiological). Supplemental amino acid levels were maintained in the culture medium during SNP treatment. […] Apoptosis was quantified by confocal microscopy using the TUNEL method described in Example 1. Mortality rate was quantified by confocal microscopy using permeant probes, as described in Example 1, to verify quantification of apoptotic rate for both C and LP diet treatments including SNP and taurine.

Fas ligand = test: Islet Fas ligand immunoreactivity with dietary taurine supplementation; assay type: in vivo, Wistar rats; settings: post-natal day 14
Method: (§2) Animals and diets were prepared as described in Example 8. The pancreas was removed, and the presence of Fas, Fas ligand, inducible nitric oxide synthase (iNOS) and vascular endothelial growth factor (VEGF) were evaluated in pancreatic sections using immunoreactivity.

IGF-II = test: Islet IGF-II immunoreactivity with dietary taurine supplementation; assay type: in vivo, Wistar rats; settings: LP diet with taurine
Method: Animals and diets were prepared as described in Example 7. The pancreas was removed, and IGF-II immunoreactivity was evaluated according to a method described by […] et al., (Endocrinology 1999;140: 4861-4873). Expression of IGF-II, considered a survival factor for cells, was measured as an indicator of the overall health of the β cells.

VEGF = test: Pancreatic VEGF immunoreactivity with dietary taurine supplementation; assay type: in vivo, Wistar rats; settings: decrease by low protein diet; regardless of developmental stage
Method: as §2

[4] = 3 mmol/l taurine; SIN-1
Method: Chemiluminescence measurements. Luminol (5-amino-2,3-dihydro-1-4-phtalazinedione) at 400 μmol/l (Sigma Chemical Co.), taurine (0.3 or 3 mmol/l), methionine (0.1 or 1 mmol/l) and β-alanine (0.3 or 3 mmol/l) stock solutions were prepared in PBS. Sydnonimine (SIN-1), also known as 3-morpholinosydnonimine, a source of peroxynitrite, was purchased from Sigma Chemical Co. SIN-1 was prepared as 100 μmol in 1 mol/l NaOH. A reaction was initiated by simultaneous injection of luminol and SIN-1 into wells containing PBS either alone or with supplemental amino acid levels as noted above. Chemiluminescence emitted by luminol in the presence of peroxynitrite was measured every 30 seconds over 20 minutes in a chemifluorophotometer (MicroLumat LB96P, EG&G BERTHOLD), and was quantified as light intensity (10^8 RLU).
as §1

NCCS(=O)(=O)O [taurine, 2-aminoethylsulfonic acid]
increased apoptotic response of LP fetal islets to SNP or IL1β (fetal islets; co-incubation with taurine in vitro (0.3 or 3.0 mmol/l)): reversed
SNP-induced and IL 1β-induced apoptosis in fetal islets (fetal islets; dietary taurine in low protein diet combined with high local taurine in vitro): synergistically decrease
increased apoptotic response of LP fetal islets to SNP or IL1β (fetal islets; maternal supplementation with taurine in vivo): reversed
proportion of individual islets showing no incidence of insulitis (NOD mice; female animals exhibiting insulitis, C+Taurine (65% in control diet group)): approximately 50%
severity of insulitis when it occurs (NOD mice; female mice exhibiting insulitis, 12 weeks): not lessened
reduction of incidence of insulitis (NOD mice; female mice): 80%
reduction of incidence of insulitis (NOD mice; male mice): 60%
rate of IL1β-induced apoptosis in islet cells (fetal islet cells [1]; C diet group, only the high dose of taurine (3 mmol/l)): decreased significantly
number of islet cells positive for IL1β-induced apoptosis (fetal islet cells [1]; LP diet group, taurine 0.3 mmol/l and 3.0 mmol/l): significantly decreased
concentration of NO released in the presence of SNP [2]: not significantly altered
in vitro islet cell proliferation rate (BrdU) (fetal islet cells [3]): increased LP islet cell proliferation rate to the levels observed in C islets having no taurine addition
mortality after treatment with SNP, percentage of cell death (fetal islet β cells): significantly diminished
Fas ligand presence in islets (Fas ligand): reduced
IGF-II immunoreactivity (IGF-II; fetal period (F21.5)): increased IGF-II immunoreactivity to a level consistent with the C diet animals
IGF-II immunoreactivity (IGF-II; post-natal): restored IGF-II immunoreactivity levels to the point that the control IGF-II level was surpassed
VEGF immunoreactivity in the pancreas (VEGF): reverses the effect
luminol chemiluminescence (peroxynitrite quenching) [4]: dramatically decreased
